Results taken from ChEMBL document CHEMBL1132908, “Synthesis and activity studies of conformationally restricted alpha-ketoamide factor Xa inhibitors” (Bioorg Med Chem Lett, 2000).
pKi: −log10 of the molar value.

Key:
Prothrombin = Prothrombin (Homo sapiens, UniProt P00734); test: Binding affinity for human thrombin
Coagulation factor X = Coagulation factor X (Homo sapiens, UniProt P00742); test: Inhibition of Coagulation factor X
Chain of Coagulation factor X (P00742 41-179 limits assumed): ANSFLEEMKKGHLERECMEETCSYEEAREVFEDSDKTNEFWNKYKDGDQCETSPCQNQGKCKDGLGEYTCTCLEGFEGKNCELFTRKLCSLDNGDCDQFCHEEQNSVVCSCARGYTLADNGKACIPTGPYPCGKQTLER
Chain of Coagulation factor X (P00742 235-488 limits assumed): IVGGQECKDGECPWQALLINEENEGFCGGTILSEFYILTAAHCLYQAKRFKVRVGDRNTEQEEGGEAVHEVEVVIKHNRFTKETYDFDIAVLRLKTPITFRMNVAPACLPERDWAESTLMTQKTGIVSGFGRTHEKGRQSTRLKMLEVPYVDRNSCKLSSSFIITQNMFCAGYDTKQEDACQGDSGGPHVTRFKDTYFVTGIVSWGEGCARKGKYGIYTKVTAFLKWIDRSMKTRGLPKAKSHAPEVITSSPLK

## CN(CC(=O)N[C@@H](CCCCN)C(=O)C(=O)Nc1ccccc1)C(=O)c1ccccc1Sc1ccccc1C#N
Prothrombin
  pKi: 7.22
Coagulation factor X
  pKi: 7.27

## CN(CC(=O)N[C@@H](CCCCN)C(=O)C(=O)Nc1cccc(N)c1)C(=O)c1ccccc1Sc1ccccc1C#N
Prothrombin
  pKi: 6.92
Coagulation factor X
  pKi: 6.92

## CN(CC(=O)N[C@@H](CCCCN)B(O)O)C(=O)c1ccccc1S(=O)(=O)c1ccccc1
Prothrombin
  pKi: 7.01
Coagulation factor X
  pKi: 5.24

## CN(CC(=O)N[C@@H](CCCCN)C(=O)C(=O)NCc1ccccn1)C(=O)c1ccccc1Sc1ccccc1C#N
Prothrombin
  pKi: 5.13
Coagulation factor X
  pKi: 6.44

## CN(CC(=O)N[C@@H](CCCCN)B(O)O)C(=O)c1ccccc1Sc1ccccc1
Prothrombin
  pKi: 8.80
Coagulation factor X
  pKi: 7.77

## CNC(=O)C(=O)[C@H](CCCCN)NC(=O)CN(C)C(=O)c1ccccc1Sc1ccccc1C#N
Prothrombin
  pKi: 6.24
Coagulation factor X
  pKi: 6.96

## CN(CC(=O)N[C@@H](CCCCN)B(O)O)C(=O)c1ccccc1Sc1ccccc1C#N
Prothrombin
  pKi: 8.06
Coagulation factor X
  pKi: 8.96

## CN(CC(=O)N[C@@H](CCCCN)C(=O)C(=O)Nc1ccc(Oc2ccc(N)cc2)cc1)C(=O)c1ccccc1Sc1ccccc1C#N
Prothrombin
  pKi: 7.17
Coagulation factor X
  pKi: 6.92

## CN(CC(=O)N[C@@H](CCCCN)C(=O)C(=O)Nc1ccc(Oc2cccc(N)c2)cc1)C(=O)c1ccccc1Sc1ccccc1C#N
Prothrombin
  pKi: 7.23
Coagulation factor X
  pKi: 6.92

## CN(CC(=O)N[C@@H](CCCCN)C(=O)C(=O)Nc1ccc(Oc2cccnc2)cc1)C(=O)c1ccccc1Sc1ccccc1C#N
Prothrombin
  pKi: 7.30
Coagulation factor X
  pKi: 7.22

## CN(CC(=O)N[C@@H](CCCCN)C(=O)C(=O)NCCN1CCOCC1)C(=O)c1ccccc1Sc1ccccc1C#N
Prothrombin
  pKi: 5.06
Coagulation factor X
  pKi: 6.70

## CN(CC(=O)N[C@@H](CCCCN)B(O)O)C(=O)c1ccccc1Cc1ccccc1
Prothrombin
  pKi: 8.31
Coagulation factor X
  pKi: 7.00
